These are literature values, as cited in patent US20060287520A1, “Synthesis of salinosporamide A and analogues thereof” (priority 2005, published 2006).

SMILES strings stand for the structures.

For one data set, the system named is 20S proteasome. As to conditions: times more potent than omuralide, same molecular target (20S proteasome).
The conditions of data set [1]: read-out: in vitro cytotoxicity IC50; background statement; cell line not given.

For the molecule `C[C@@]12OC(=O)[C@]1([C@@H](O)[C@@H]1C=CCCC1)NC(=O)[C@@H]2CCCl` [Salinosporamide A], the “potency relative to omuralide (2)” value with 20S proteasome was “approximately 35 times”. Moreover, the IC50 (as a rule, the concentration that inhibits the measured activity by half) in data set [1] is about 10 nM.
